In publication PMC12645083, “Microwave‐Enhanced Synthesis of 2‐Styrylquinoline‐4‐Carboxamides With Promising Anti‐Lymphoma Activity” (Archiv Der Pharmazie, 2025):

What was measured:
Experiment in all cases: In vitro antiproliferative activity, resazurin cell viability
Type in all cases: cell-based
SU-DHL-8 = settings: Homo sapiens, B lymphocyte, large cell lymphoma, 72 h of treatment, mean ± SEM
Method: (§1) To test the newly synthesized compounds, various human cell lines were employed. HD‐MB03 cells were purchased from DSMZ (Braunschweig, Germany), while A549, MDA‐MB‐231, RPMI‐8420, SU‐DHL‐8, TOLEDO, VL51, SU‐DHL‐1, SU‐DHL‐18, and KM‐H2 were obtained from ATCC (Manassas, VA, USA). Cells were cultured in DMEM (for MDA‐MB‐231 and A549) or RPMI‐1640 (for RPMI‐8420, SU‐DHL‐8, TOLEDO, VL51, SU‐DHL‐1, SU‐DHL‐18, KM‐H2, and HD‐MB03) media (Gibco, Milan, Italy). Both media were supplemented with 115 units/mL penicillin G (Gibco, Milan, Italy), 115 µg/mL streptomycin (Invitrogen, Milan, Italy), and 10% fetal bovine serum (Invitrogen, Milan, Italy). Peripheral blood mononuclear cells (PBMCs) were isolated from healthy donors as previously described. For cytotoxicity assays, PBMCs were resuspended at 5 × 10⁵ cells/mL in complete RPMI medium with or without 2.5 µg/mL phytohemagglutinin (PHA) (Irvine Scientific) to stimulate T‐cell activation and proliferation. All cell lines were maintained at 37°C in a humidified atmosphere containing 5% CO₂. All compounds were dissolved in DMSO at a 10 mM stock concentration. For dose–response assays, cells were seeded in 96‐well plates at densities optimized for each cell line: HD‐MB03 at 10,000 cells/well, A549 at 4000 cells/well, and MDA‐MB‐231 at 7000 cells/well. All other cell lines were seeded at 20,000 cells/well in a final volume of 100 µL per well. After 24 h, cells were treated with a 6‐point serial dilution of compounds starting from 10 µM, in triplicate for statistical analysis. Seventy‐2 h posttreatment, 10 µL of resazurin solution (100 µg/mL) was added to each well, and cells were incubated for an additional 3–6 h. Fluorescence was measured using a Spark 10 M microplate reader (Tecan Group Ltd., Männedorf, Switzerland) with excitation at 535 nm and emission at 600 nm. The IC₅₀ was defined as the concentration of compound required to inhibit cell proliferation by 50% compared to cells treated with the highest DMSO concentration.
(§2) To test the newly synthesized compounds, various human cell lines were employed. HD-MB03 cells were purchased from DSMZ (Braunschweig, Germany), while A549, MDA-MB-231, RPMI-8420, SU-DHL-8, TOLEDO, VL51, SU-DHL-1, SU-DHL-18, and KM-H2 were obtained from ATCC (Manassas, VA, USA). Cells were cultured in DMEM (for MDA-MB-231 and A549) or RPMI-1640 (for RPMI-8420, SU-DHL-8, TOLEDO, VL51, SU-DHL-1, SU-DHL-18, KM-H2, and HD-MB03) media (Gibco, Milan, Italy). Both media were supplemented with 115 units/mL penicillin G (Gibco, Milan, Italy), 115 µg/mL streptomycin (Invitrogen, Milan, Italy), and 10% fetal bovine serum (Invitrogen, Milan, Italy). Peripheral blood mononuclear cells (PBMCs) were isolated from healthy donors as previously described. ^[1] For cytotoxicity assays, PBMCs were resuspended at 5 × 10⁵ cells/mL in complete RPMI medium with or without 2.5 µg/mL phytohemagglutinin (PHA) (Irvine Scientific) to stimulate T cell activation and proliferation. All cell lines were maintained at 37 °C in a humidified atmosphere containing 5% CO₂. All compounds were dissolved in DMSO at a 10 mM stock concentration. For dose–response assays, cells were seeded in 96-well plates at densities optimized for each cell line: HD-MB03 at 10,000 cells/well, A549 at 4,000 cells/well, and MDA-MB-231 at 7,000 cells/well. All other cell lines were seeded at 20,000 cells/well in a final volume of 100 µL per well. After 24 hours, cells were treated with a 6-point serial dilution of compounds starting from 10 µM, in triplicate for statistical analysis. Seventy-two hours post-treatment, 10 µL of resazurin solution (100 µg/mL) was added to each well, and cells were incubated for an additional 3–6 hours. Fluorescence was measured using a Spark 10M microplate reader (Tecan Group Ltd., Männedorf, Switzerland) with excitation at 535 nm and emission at 600 nm. […]

HD-MB03 = settings: Homo sapiens, medulloblastoma cells, 72 h of treatment, mean ± SEM, at least three experiments
Method: as §1, §2

MDA-MB-231 = settings: Homo sapiens, triple-negative breast cancer, 72 h of treatment, mean ± SEM
Method: as §1, §2

A549 = settings: Homo sapiens, non-small cell lung cancer, 72 h of treatment, mean ± SEM
Method: as §1, §2

RPMI-8402 = settings: Homo sapiens, T-lymphoblastic leukemia cells, 72 h of treatment, mean ± SEM
Method: as §1, §2

Compound | IC50 (SU-DHL-8) | IC50 (HD-MB03) | IC50 (MDA-MB-231) | IC50 (A549) | IC50 (RPMI-8402)
O=C(Nc1ccc(Cl)cc1)c1cc(/C=C/c2ccccc2)nc2ccccc12 [4g, (E)-N-(4-chlorophenyl)-2-styrylquinoline-4-carboxamide] | 7.8 ± 1.3 µM | > 10 µM | > 10 µM | > 10 µM | 6.31 ± 0.36 µM
O=C(Nc1ccc([N+](=O)[O-])c(C(F)(F)F)c1)c1cc(/C=C/c2ccc(Cl)c(Cl)c2)nc2ccccc12 [4x, (E)-2-(3,4-dichlorostyryl)-N-(4-nitro-3-(trifluoromethyl)phenyl)quinoline-4-carboxamide] | > 10 µM | > 10 µM | > 10 µM | > 10 µM | > 10 µM
COc1cc(/C=C/c2cc(C(=O)Nc3cccc(Cl)c3)c3ccccc3n2)cc(OC)c1OC [4p, (E)-N-(3-chlorophenyl)-2-(3,4,5-trimethoxystyryl)quinoline-4-carboxamide] | 4.46 ± 0.37 µM | 8.31 ± 0.64 µM | 5.7 ± 0.1 µM | > 10 µM | 9.06 ± 0.59 µM
COc1ccc(/C=C/c2cc(C(=O)Nc3ccc(Cl)cc3)c3ccccc3n2)cc1 [4ae, (E)-N-(4-chlorophenyl)-2-(4-methoxystyryl)quinoline-4-carboxamide] | 4.67 ± 0.14 µM | > 10 µM | > 10 µM | > 10 µM | 6.41 ± 1.16 µM
O=C(Nc1ccc(Cl)cc1)c1cc(/C=C/c2ccc(Cl)cc2)nc2ccccc12 [4af, (E)-N-(4-chlorophenyl)-2-(4-chlorostyryl)quinoline-4-carboxamide] | 4.45 ± 0.53 µM | > 10 µM | > 10 µM | > 10 µM | 4.61 ± 0.24 µM
O=C(Nc1cccc(Cl)c1)c1cc(/C=C/c2ccccc2)nc2ccccc12 [4f, (E)-N-(3-chlorophenyl)-2-styrylquinoline-4-carboxamide] | 8.27 ± 0.72 µM | > 10 µM | > 10 µM | > 10 µM | > 10 µM
Cc1ccc(NC(=O)c2cc(/C=C/c3ccccc3)nc3ccccc23)cc1 [4c, (E)-2-styryl-N-(p-tolyl)quinoline-4-carboxamide] | > 10 µM | > 10 µM | > 10 µM | > 10 µM | > 10 µM
COc1cc(/C=C/c2cc(C(=O)Nc3ccc([N+](=O)[O-])c(C(F)(F)F)c3)c3ccccc3n2)cc(OC)c1OC [4t, (E)-N-(4-nitro-3-(trifluoromethyl)phenyl)-2-(3,4,5-trimethoxystyryl)quinoline-4-carboxamide] | > 10 µM | > 10 µM | > 10 µM | > 10 µM | > 10 µM
O=C(Nc1ccc(C(F)(F)F)cc1)c1cc(/C=C/c2cccc([N+](=O)[O-])c2)nc2ccccc12 [4ad, (E)-2-(3-nitrostyryl)-N-(4-(trifluoromethyl)phenyl)quinoline-4-carboxamide] | > 10 µM | > 10 µM | > 10 µM | > 10 µM | > 10 µM
COc1ccc(/C=C/c2cc(C(=O)Nc3ccc([N+](=O)[O-])c(C(F)(F)F)c3)c3ccccc3n2)cc1 [4v, (E)-2-(4-methoxystyryl)-N-(4-nitro-3-(trifluoromethyl)phenyl)quinoline-4-carboxamide] | > 10 µM | > 10 µM | > 10 µM | > 10 µM | > 10 µM
COc1cc(/C=C/c2cc(C(=O)Nc3ccc(C)cc3)c3ccccc3n2)cc(OC)c1OC [4m, (E)-N-(p-tolyl)-2-(3,4,5-trimethoxystyryl)quinoline-4-carboxamide] | > 10 µM | > 10 µM | > 10 µM | > 10 µM | > 10 µM
